Measurements from patent publication US9924719B2, “Pyridazine compound” (Sumitomo Chemical Company, Limited, priority 2014, dated 2018).

Key:
Format in all cases: in vivo
[1] = test system: housefly (Musca domestica); experiment: Test Example 9: treated filter paper with sucrose bait, housefly, 500 ppm; conditions: 0.7 mL on filter paper, female adult housefly, after 24 hours
Experimental: Each formulation comprising the Present compound 5, 17, 25, 26, 27, 31, 35, 36, 37 or 38, or the N-oxide 3, the N-oxide 4, or the N-oxide 5 prepared by the process according to the Formulation example 5 was diluted with water until the concentration of the active ingredient reached 500 ppm to prepare a test chemical solution.
The bottom of the polyethylene cup having 5.5 cm diameter was matted with the same size of a filter paper, and 0.7 mL of the test chemical solution was added dropwise to the filter paper, and 30 mg sucrose as bait was placed in the cup uniformly. Ten (10) heads of female adult housefly (Musca domestica) were released into the polyethylene cup, and the cup was covered with a lid. After 24 hours, the life and death of housefly was investigated, and the number of dead insects was counted, and the mortality of insects was calculated by the following equation. Mortality of insects (%)=(the number of dead insects/the number of test insects)×100

[2] = test system: cucurbit leaf beetle (Aulacophora femoralis); experiment: Test Example 11: spray on cucumber seedling, cucurbit leaf beetle larvae, 50 ppm; conditions: 120 h, Formulation example 1, spray 30 mL/cup on cucumber, second instar larvae, 25° C., 5 days, read-out: morality of insects
Experimental: Meanwhile, cucumber seedling (on the developmental stage of the third true leaf) was planted in a polyethylene cup, and each of the test chemical solution was sprayed into the seedling in a ratio of 30 mL/cup. After the test chemical solution was dried, the second leaf thereof was cut out, and then installed into a 200 mL cup. Ten (10) heads of the second instar larvae of cucurbit leaf beetle (Aulacophora femoralis) were released into the cup, and the cup was covered with a lid. After the cup was stored at 25° C. for 5 days, the number of the dead insects was counted, and the mortality of insects was calculated by the following equation. Morality (%)−{the number of the dead insects/the number of the test isects}×100

[3] = test system: cotton aphid (Aphis gossypii); experiment: Test Example 2: foliar spray on cucumber seedling infested with cotton aphid, 200 ppm; conditions: 144 h, spray 20 mL/seedling on cucumber, 6 days after spraying, read-out: controlling value
[4] = test system: cotton aphid (Aphis gossypii); experiment: Test Example 1: foliar spray on cucumber seedling infested with cotton aphid, 500 ppm; conditions: 144 h, spray 20 mL/seedling on cucumber, 6 days after spraying, read-out: controlling value
[5] = test system: house mosquito (Culex pipiens pallens); experiment: Test Example 10: house mosquito larvae in treated water; conditions: 0.7 mL of 500 ppm solution in 100 ml water (3.5 ppm), last instar larvae, after 1 day
Experimental: The formulation comprising the Present compounds 4 prepared by the process according to the Formulation example 5 was diluted with water until the concentration of the active ingredient reached 500 ppm to prepare a test chemical solution.
Zero point seven(0.7) mL of the testg chemical solution was added to ion-changed water 100 ml (the concentrataion of the active ingredient was 3.5 ppm). Twently (20) heads of the last instar larvae of […] house mosquito (Culex pipiens pallens) were released […], and after 1 day, the life and death of house mosquito was investigated, and the number of dead insects was counted, and the mortality of insects was calculated by the following equation. Mortality of insects (%)=(the number of the dead insects/the number of the test insects)×100

[6] = test system: cabbage moth (Plutella xylostella); experiment: Test Example 7: spray on cabbage seedling, cabbage moth larvae, 500 ppm; conditions: 120 h, spray 20 mL/cup on cabbage, 2nd instar larvae, 25° C., 5 days, read-out: morality of insects
Experimental: (§1) Meanwhile, cabbage seedling (on the developmental stage of the third true leaf) was planted in a polyethylene cup, and each of the test chemical solution was sprayed into the cabbage seedling in a ratio of 20 mL/cup. After the test chemical solution was dried, the stem and leaf thereof was cut out and then installed into a 50 mL cup. Five (5) heads of 2nd instar larvae of cabbage moth (Plutella xylostella) were released into the cup, and the cup was covered with a lid. After the cup was stored at 25° C. for 5 days, the number of the dead insects was counted, and the mortality of insects was calculated by the following equation. Morality (%)=([…]the number of the dead insects/the number of the test insects)×100

[7] = test system: brown planthopper (Nilaparvata lugens); experiment: Test Example 5: spray on rice seedling, brown planthopper, 200 ppm; conditions: 144 h, 10 mL spray on rice seedling, 3rd to 4th instar larvae, after 6 days, 25° C., read-out: controlling value
[8] = test system: cabbage moth (Plutella xylostella); experiment: Test Example 8: spray on cabbage seedling, cabbage moth larvae, 200 ppm; conditions: 120 h, spray 20 mL/cup on cabbage, 2nd instar larvae, 25° C., 5 days, read-out: morality of insects
Experimental: as §1, with “of the surviving insects/the number” for “of the dead insects/the number”

SMILES	morality of insects [1]	pest or weed control at 50 ppm [2]	pest or weed control at 200 ppm [3]	pest or weed control at 500 ppm [4]	insect mortality [5]	pest or weed control at 500 ppm [6]	pest or weed control at 200 ppm [7]	pest or weed control at 200 ppm [8]
CCS(=O)(=O)c1cccnc1-c1n[n+]([O-])c(OCC(F)(F)C(F)(F)F)cc1C [N-oxide 3]	100%	–	–	–	–	–	–	–
CCS(=O)(=O)c1cc(C(F)(F)F)cnc1-c1ccc(OCC(F)(F)C(F)(F)F)[n+]([O-])n1 [N-oxide 4]	100%	–	–	–	–	–	–	–
CCS(=O)(=O)c1cc(C(F)(F)F)cnc1-c1ccc(OCC(F)(F)C(F)F)[n+]([O-])n1 [N-oxide 5]	100%	–	–	–	–	–	–	–
CCS(=O)(=O)c1cc(C(F)(F)F)ccc1-c1ccc(OCC(F)(F)F)nn1 [Present compound 1]	–	≥ 85%	–	–	–	–	–	–
CCS(=O)(=O)c1cccnc1-c1ccc(OCC(Cl)(Cl)Cl)nn1 [Present compound 4]	–	≥ 85%	≥ 90%	≥ 90%	≥ 95%	–	–	–
CCS(=O)(=O)c1cccnc1-c1ccc(OCC(F)(F)F)nn1 [Present compound 5]	100%	–	–	–	–	–	–	–
CCS(=O)(=O)c1cccnc1-c1ccc(OCC(F)(F)C(F)F)nn1 [Present compound 8]	–	≥ 85%	≥ 90%	≥ 90%	–	≥ 80%	≥ 90%	≥ 80%
CCS(=O)(=O)c1cccnc1-c1ccc(OCC(F)(F)C(F)(F)C(F)(F)F)nn1 [Present compound 17]	100%	–	–	–	–	–	–	–
CCS(=O)(=O)c1cccnc1-c1ccc(OCC(C)(C(F)(F)F)C(F)(F)F)nn1 [Present compound 25]	100%	–	–	–	–	–	–	–
CCC(Oc1ccc(-c2ncccc2S(=O)(=O)CC)nn1)C(F)(F)F (stereo not drawn) [Present compound 26]	100%	–	–	–	–	–	–	–
CCSc1cccnc1-c1ccc(OCC(F)(F)C(F)(F)F)nn1 [Present compound 27]	100%	≥ 85%	≥ 90%	≥ 90%	–	≥ 80%	≥ 90%	≥ 80%
CCS(=O)(=O)c1cc(C(F)(F)F)cnc1-c1ccc(OCC(F)(F)C(F)(F)F)nn1 [Present compound 28]	–	≥ 85%	≥ 90%	–	–	–	≥ 90%	≥ 80%
CC[S+]([O-])c1cccnc1-c1ccc(OCC(F)(F)C(F)(F)F)nn1 (stereo not drawn) [Present compound 29]	–	≥ 85%	≥ 90%	≥ 90%	–	–	≥ 90%	–
CCS(=O)(=O)c1cccnc1-c1nnc(OCC(F)(F)C(F)(F)F)cc1C [Present compound 30]	–	–	–	–	–	–	–	≥ 80%
CCS(=O)(=O)c1cc(C(F)(F)F)cnc1-c1ccc(OCC(F)(F)C(F)F)nn1 [Present compound 31]	100%	–	–	–	–	–	–	–
CCS(=O)(=O)c1cccnc1-c1cc(C(F)(F)F)c(OCC(F)(F)C(F)F)nn1 [Present compound 33]	–	–	–	≥ 90%	–	≥ 80%	–	≥ 80%
CCS(=O)(=O)c1cccnc1-c1cc(C(F)(F)F)c(OCC(F)(F)C(F)(F)F)nn1 [Present compound 34]	–	≥ 85%	–	≥ 90%	–	≥ 80%	–	≥ 80%
CCS(=O)(=O)c1cccnc1-c1cc(C)c(OCC(F)(F)C(F)F)nn1 [Present compound 35]	100%	≥ 85%	≥ 90%	≥ 90%	–	≥ 80%	≥ 90%	≥ 80%
CCS(=O)(=O)c1cccnc1-c1cc(C)c(OCC(F)(F)C(F)(F)F)nn1 [Present compound 36]	100%	–	≥ 90%	≥ 90%	–	≥ 80%	≥ 90%	≥ 80%
CC[S+]([O-])c1cccnc1-c1cc(C)c(OCC(F)(F)C(F)F)nn1 (stereo not drawn) [Present compound 37]	100%	–	≥ 90%	≥ 90%	–	≥ 80%	≥ 90%	–
CC[S+]([O-])c1cccnc1-c1cc(C)c(OCC(F)(F)C(F)(F)F)nn1 (stereo not drawn) [Present compound 38]	100%	–	≥ 90%	≥ 90%	–	≥ 80%	≥ 90%	≥ 80%
